Test results taken from patent US10894817B2, “Fatty acid modified urocortin-2 analogs for the treatment of diabetes and chronic kidney disease” (priority 2016, dated 2021).
Where two headings read alike, the source gives them in different places. Starred links: 1 amine or outer side, 2 acyl side, 3 side chain; linkers in the order of their positions; H or OH if unused. Non-standard residues stand in square brackets, D forms with d. Residues, ends and D or L forms follow the SMILES beside them. Groups on a side chain read outwards from the residue. *: point of attachment. C20 diacid = O=C(O)CCCCCCCCCCCCCCCCCCC(=O)*; C18 diacid = O=C(O)CCCCCCCCCCCCCCCCC(=O)*; γGlu = O=C(O)[C@H](CCC(=O)[*:2])N[*:1]; Palmitoyl = CCCCCCCCCCCCCCCC(=O)*; NMeI = CC[C@H](C)[C@H](NC)C(=O)O; AEEA = NCCOCCOCC(=O)O

Target: T1, human CRHR2b (Homo sapiens, UniProt Q13324)
T1 construct: expressed in transfected cells; host or cells: Chinese Hamster Ovary (CHO) cells, transient transfection
T1 sequence (Q13324 1-438 isoform Q13324-2): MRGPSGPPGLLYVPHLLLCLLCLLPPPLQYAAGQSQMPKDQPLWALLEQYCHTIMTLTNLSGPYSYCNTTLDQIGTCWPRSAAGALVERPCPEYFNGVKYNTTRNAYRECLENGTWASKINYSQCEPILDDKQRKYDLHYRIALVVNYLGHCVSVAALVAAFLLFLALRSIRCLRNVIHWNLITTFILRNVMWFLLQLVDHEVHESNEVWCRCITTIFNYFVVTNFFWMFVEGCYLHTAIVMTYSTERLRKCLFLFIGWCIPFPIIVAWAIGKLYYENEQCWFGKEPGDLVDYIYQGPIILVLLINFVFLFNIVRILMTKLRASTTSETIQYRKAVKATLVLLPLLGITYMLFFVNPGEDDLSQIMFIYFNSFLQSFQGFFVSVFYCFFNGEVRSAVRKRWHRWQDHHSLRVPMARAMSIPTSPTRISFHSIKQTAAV
Test: human CRHR2b cell-based cAMP assay
Procedure, shortened: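 ED50 values are means ± SEM over several runs, curve-fitted from cAMP in pmol, calibrated against unlabeled-cAMP standards. Detection was HTRF competition, ratio 665/620 nm, after 30 min agonist exposure at 37 °C.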

[1] = cAMP assay, Table 26, compounds of Example 9, read-out: hCRHR2b Average EC50

CC[C@H](C)[C@H](NC)C(=O)N[C@H](C(=O)N[C@@H](CC(C)C)C(=O)N[C@@H](CO)C(=O)N[C@@H](CC(C)C)C(=O)N[C@@H](CC(=O)O)C(=O)N[C@H](C(=O)N1CCC[C@H]1C(=O)N[C@H](C(=O)NCC(=O)N[C@@H](CC(C)C)C(=O)N[C@@H](CC(C)C)C(=O)N[C@@H](CCC(N)=O)C(=O)N[C@H](C(=O)N[C@@H](CC(C)C)C(=O)N[C@@H](CC(C)C)C(=O)N[C@@H](CCC(=O)O)C(=O)N[C@@H](CCC(N)=O)C(=O)N[C@@H](CCC(=O)O)C(=O)N[C@@H](CCCCN)C(=O)N[C@@H](CCC(N)=O)C(=O)N[C@@H](CCC(=O)O)C(=O)N[C@@H](CCCCN)C(=O)N[C@@H](CCC(=O)O)C(=O)N[C@@H](CCCCN)C(=O)N[C@@H](CCC(N)=O)C(=O)N[C@@H](CCC(N)=O)C(=O)N[C@@H](C)C(=O)N[C@@H](CCCCNC(=O)CC[C@H](NC(=O)COCCOCCNC(=O)CC[C@H](NC(=O)CC[C@H](NC(=O)CCCCCCCCCCCCCCCCCCC(=O)O)C(=O)O)C(=O)O)C(=O)O)C(=O)N[C@@H](CCC(=O)O)C(=O)N[C@@H](CC(N)=O)C(=O)N[C@@H](C)C(=O)N[C@@H](CCC(=O)O)C(=O)N[C@H](C(=O)N[C@@H](CC(C)C)C(=O)N[C@@H](C)C(=O)N[C@@H](CCC(N)=O)C(=O)N[C@H](C(N)=O)C(C)C)[C@@H](C)CC)[C@@H](C)CC)[C@@H](C)CC)C(C)C)C(C)C [Compound 59] (H-[NMeI]VLSLDVPIGLLQILLEQEKQEKEKQQAK([γGlu-AEEA-γGlu-γGlu-C20 diacid])ENAEILAQV-NH2)
EC50 [1]: 2.62 nM

CCCCCCCCCCCCCCCC(=O)N[C@@H](CCC(=O)NCCCC[C@H](NC(=O)[C@H](CCCCN)NC(=O)[C@H](CCC(=O)O)NC(=O)[C@H](CCCCN)NC(=O)[C@H](CCC(=O)O)NC(=O)[C@H](CCC(N)=O)NC(=O)[C@H](CCCCN)NC(=O)[C@H](CCC(=O)O)NC(=O)[C@H](CCC(N)=O)NC(=O)[C@H](CCC(=O)O)NC(=O)[C@H](CC(C)C)NC(=O)[C@H](CC(C)C)NC(=O)[C@@H](NC(=O)[C@H](CCC(N)=O)NC(=O)[C@H](CC(C)C)NC(=O)[C@H](CC(C)C)NC(=O)CNC(=O)[C@@H](NC(=O)[C@@H]1CCCN1C(=O)[C@@H](NC(=O)[C@H](CC(=O)O)NC(=O)[C@H](CC(C)C)NC(=O)[C@H](CO)NC(=O)[C@H](CC(C)C)NC(=O)[C@@H](NC(=O)[C@@H](N)[C@@H](C)CC)C(C)C)C(C)C)[C@@H](C)CC)[C@@H](C)CC)C(=O)N[C@@H](CCC(N)=O)C(=O)N[C@@H](C)C(=O)N[C@H](C(=O)N[C@H](C(=O)N[C@@H](CC(N)=O)C(=O)N[C@@H](C)C(=O)N[C@@H](CCCNC(=N)N)C(=O)N[C@H](C(=O)N[C@@H](CC(C)C)C(=O)N[C@@H](C)C(=O)N[C@@H](CCCNC(=N)N)C(=O)N[C@H](C(N)=O)C(C)C)[C@@H](C)CC)[C@@H](C)O)[C@@H](C)O)C(=O)O [Compound 33] (H-IVLSLDVPIGLLQILLEQEKQEKEKK([γGlu-Palmitoyl])QATTNARILARV-NH2)
EC50 [1]: 8.68 nM

CC[C@H](C)[C@H](N)C(=O)N[C@H](C(=O)N[C@@H](CC(C)C)C(=O)N[C@@H](CO)C(=O)N[C@@H](CC(C)C)C(=O)N[C@@H](CC(=O)O)C(=O)N[C@H](C(=O)N1CCC[C@H]1C(=O)N[C@H](C(=O)NCC(=O)N[C@@H](CC(C)C)C(=O)N[C@@H](CC(C)C)C(=O)N[C@@H](CCC(N)=O)C(=O)N[C@H](C(=O)N[C@@H](CC(C)C)C(=O)N[C@@H](CC(C)C)C(=O)N[C@@H](CCCCNC(=O)COCCOCCNC(=O)COCCOCCNC(=O)CC[C@H](NC(=O)CC[C@H](NC(=O)CCCCCCCCCCCCCCCCC(=O)O)C(=O)O)C(=O)O)C(=O)N[C@@H](CCC(N)=O)C(=O)N[C@@H](CCC(=O)O)C(=O)N[C@@H](CCCCN)C(=O)N[C@@H](CCC(N)=O)C(=O)N[C@@H](CCC(=O)O)C(=O)N[C@@H](CCCCN)C(=O)N[C@@H](CCC(=O)O)C(=O)N[C@@H](CCCCN)C(=O)N[C@@H](CCC(N)=O)C(=O)N[C@@H](CCC(N)=O)C(=O)N[C@@H](C)C(=O)N[C@H](C(=O)N[C@H](C(=O)N[C@@H](CC(N)=O)C(=O)N[C@@H](C)C(=O)N[C@@H](CCC(N)=O)C(=O)N[C@H](C(=O)N[C@@H](CC(C)C)C(=O)N[C@@H](C)C(=O)N[C@@H](CCC(N)=O)C(=O)N[C@H](C(N)=O)C(C)C)[C@@H](C)CC)[C@@H](C)O)[C@@H](C)O)[C@@H](C)CC)[C@@H](C)CC)C(C)C)C(C)C [Compound 50] (H-IVLSLDVPIGLLQILLK([AEEA-AEEA-γGlu-γGlu-C18 diacid])QEKQEKEKQQATTNAQILAQV-NH2)
EC50: 3.56 nM

CCCCCCCCCCCCCCCC(=O)N[C@@H](CCC(=O)N[C@@H](CCC(=O)NCCCC[C@H](NC(=O)[C@H](C)NC(=O)[C@H](CCC(N)=O)NC(=O)[C@H](CCC(N)=O)NC(=O)[C@H](CCCCN)NC(=O)[C@H](CCC(=O)O)NC(=O)[C@H](CCCCN)NC(=O)[C@H](CCC(=O)O)NC(=O)[C@H](CCC(N)=O)NC(=O)[C@H](CCCCN)NC(=O)[C@H](CCC(=O)O)NC(=O)[C@H](CCC(N)=O)NC(=O)[C@H](CCC(=O)O)NC(=O)[C@H](CC(C)C)NC(=O)[C@H](CC(C)C)NC(=O)[C@@H](NC(=O)[C@H](CCC(N)=O)NC(=O)[C@H](CC(C)C)NC(=O)[C@H](CC(C)C)NC(=O)CNC(=O)[C@@H](NC(=O)[C@@H]1CCCN1C(=O)[C@@H](NC(=O)[C@H](CC(=O)O)NC(=O)[C@H](CC(C)C)NC(=O)[C@H](CO)NC(=O)[C@H](CC(C)C)NC(=O)[C@@H](NC(=O)[C@@H](N)[C@@H](C)CC)C(C)C)C(C)C)[C@@H](C)CC)[C@@H](C)CC)C(=O)N[C@H](C(=O)N[C@@H](CC(N)=O)C(=O)N[C@@H](C)C(=O)N[C@@H](CCCNC(=N)N)C(=O)N[C@H](C(=O)N[C@@H](CC(C)C)C(=O)N[C@@H](C)C(=O)N[C@@H](CCCNC(=N)N)C(=O)N[C@H](C(N)=O)C(C)C)[C@@H](C)CC)[C@@H](C)O)C(=O)O)C(=O)O [Compound 38] (H-IVLSLDVPIGLLQILLEQEKQEKEKQQAK([γGlu-γGlu-Palmitoyl])TNARILARV-NH2)
EC50 [1]: 2.33 nM
